Experimental data published in patent US20040110745A1, “Therapeutic chroman compounds” (priority 2001, published 2004).

Test system: guinea pigs
Experiment: learned helplessness assay for antidepressant/antianxiety activity
Type: in vivo
Details: guinea pig
Excerpt: The utility of the compounds for example to treat depression may be shown via a learned helplessness test in guinea pigs, which is used extensively as correlative to antidepressant activity in humans. The learned helplessness test may be carried out as follows: Seventy male Hartley guinea pigs, each weighing about 350-425 gm are fed ad lib, and are housed under a 12-hour light/dark cycle. The procedure consists of two phases: The induction phase and the avoidance training phase. In the induction phase, subjects are placed into standard shuttle cages (20 L×16 W×21 centimeters H) which are fitted with a grid floor. Electrical stimulation (1.25 mA, 10 sec duration) is delivered to the floor of the cage every 90-sec during 1 hour daily sessions. Subjects have no opportunity to escape or to avoid shocks. Induction is conducted for 2 consecutive days.
In avoidance training, testing is also conducted in the shuttle cages, except that the subjects are not returned to the same chamber in which induction had occurred. Additionally, all cages are fitted with a partition with an arch in the center of the cage, through which animals can pass between the left and right halves of the cage. The procedure employed is a standard shuttle avoidance procedure in which a compound, conditioned stimulus (a 10-sec presentation of a tone and turning on of a lamp on the side of the cage that the guinea pig was occupying) serves to indicate presentation of electrical current to the floor of the cage. Shock is presented for a 5 sec period, 5 sec after initiation of the conditioned stimulus. Entry into the opposite side of the shuttle cage via the arched partition prior to shock onset results in the end of the trial (avoidance response). If shock is delivered, entry into the opposite side of the cage results in termination of the shock and CS (escape). Reversal of learned helplessness in the induction subjects correlates to antidepressant activity of the test compound.
Avoidance training, 45-min in duration, is conducted on 2 consecutive days, beginning 48 hr after the final induction session. Seventy subjects are assigned to 1 of 6 groups of 11-12 animals. The groups are as follows:
Groups 2-6 are given induction and avoidance training sessions. Injections are administered immediately following induction sessions and 1 hour prior to avoidance training sessions. A second injection is administered 7-8 hours following the first injection, for a total of 9 injections administered over 5 days. No injections are administered following the final avoidance training session.
Compounds of the present invention may be administered in a volume of 1 mL/kg bwt. Imipramine is dissolved in DI water. The compounds are dissolved in DI water, to which was added a few drops of lactic acid (pH 5.5). […]

Row | Structure (SMILES) | activity in the learned helplessness assay
1 | COc1cc(N2CCN(C)CC2)c2oc(C(=O)Nc3ccc(N4CCOCC4)cc3)cc(=O)c2c1 [Example 31, 6-Methoxy-8-(4-methyl-piperazin-1-yl)-4-oxo-4H-chromene-2-carboxylic acid (4-morpholin-4-yl-phenyl)-amide] | demonstrate activity
2 | CCC(=O)N1CCN(c2ccc(NC(=O)c3cc(=O)c4cc(OC)cc(N5CCN(C)CC5)c4o3)cc2)CC1 [Example 44, 6-Methoxy-8-(4-methyl-piperazin-1-yl)-4-oxo-4H-chromene-2-carboxylic acid [4-(4-propionyl-piperazin-1-yl)-phenyl]-amide] | demonstrate activity
3 | CCS(=O)(=O)N1CCN(c2ccc(NC(=O)c3cc(=O)c4cc(F)cc(N5CCN(C)CC5)c4o3)cc2)CC1 [Example 71, 6-Fluoro-8-(4-methyl-piperazin-1-yl)-4-oxo-4H-chromene-2-carboxylic acid [4-(4-ethane sulfonyl-piperazin-1-yl)-phenyl]-amide] | demonstrate activity
4 | CCC(=O)N1CCN(c2ccc(NC(=O)c3cc(=O)c4cc(F)cc(N5CCN(C)CC5)c4o3)cc2)CC1 [Example 72, 6-flouro-8-(4-methyl-piperazin-1-yl)-4-oxo-4H-chromene-2-carboxylic acid [4-(4-propionyl-piperazin-1-yl)-phenyl]-amide] | demonstrate activity

Test system: not given
Experiment: not given
Details: not given

Row | Structure (SMILES) | melting point
5 | CN1CCN(c2cccc3c2OC(C(=O)Nc2ccc(N4CCOCC4)cc2)CC3)CC1 (racemic) [Example 75, racemic-8-(4-Methyl-piperazin-1-yl)-chroman-2-carboxylic acid (4-morpholin-4-yl-phenyl)-amide] | 215 to 216 °C
6 | CN1CCN(c2cccc3c(=O)cc(C(=O)Nc4ccc(N5CCOCC5)cc4)oc23)CC1 [Example 1, 8-(4-methyl-1-piperazinyl)-N-[4-(4-morpholinyl)phenyl]-4-Oxo-4H-chromene-2-carboxamide] | 217 to 218 °C (dec.)
7 | CN1CCN(c2cccc3c(=O)cc(C(=O)Nc4ccc(N5CCOCC5)cc4O)oc23)CC1 [Example 22, 8-(4-Methyl-piperazin-1-yl)-4-oxo-4H-chromene-2-carboxylic acid (2-hydroxy-4-morpholin-4-yl-phenyl)-amide] | 248.4 to 249.6 °C
8 | CN1CCN(c2cccc3c(=O)cc(C(=O)N(C)c4ccc(N5CCOCC5)cc4)oc23)CC1 [Example 25, 8-(4-Methylpiperazin-1-yl)-4-oxo-4H-chromene-2-carboxylic acid methyl-(4-morpholin-4-yl-phenyl)amide] | 245 to 246.8 °C
9 | COc1cc(N2CCN(C)CC2)c2oc(C(=O)Nc3ccc(N4CCOCC4)cc3)cc(=O)c2c1 [Example 31, 6-Methoxy-8-(4-methyl-piperazin-1-yl)-4-oxo-4H-chromene-2-carboxylic acid (4-morpholin-4-yl-phenyl)-amide] | 234 to 236 °C
10 | COc1cc(N2CCN(C)CC2)c2oc(C(=O)Nc3ccc(N4CCN(C(=O)CCO)CC4)cc3)cc(=O)c2c1 [Example 68, 6-Methoxy-8-(4-methyl-piperazin-1-yl)-4-oxo-4H-chromene-2-carboxylic acid {4-[4-(3-hydroxy-propanoyl)-piperazin-1-yl]-phenyl}-amide] | 195 to 197 °C
11 | CCS(=O)(=O)N1CCN(c2ccc(NC(=O)c3cc(=O)c4cc(F)cc(N5CCN(C)CC5)c4o3)cc2)CC1 [Example 71, 6-Fluoro-8-(4-methyl-piperazin-1-yl)-4-oxo-4H-chromene-2-carboxylic acid [4-(4-ethane sulfonyl-piperazin-1-yl)-phenyl]-amide] | 233 to 234 °C
12 | CN1CCN(c2cc(F)cc3c(=O)cc(C(=O)Nc4ccc(N5CCN(C(=O)CCO)CC5)cc4)oc23)CC1 [Example 73, 6-Fluoro-8-(4-methyl-piperazin-1-yl)-4-oxo-4H-chromene-2-carboxylic acid {4-[4-(3-hydroxy-propanoyl)-piperazin-1-yl]-phenyl}-amide] | 195 to 199 °C

More lines, now with the values ahead:

Row | melting point | Structure (SMILES)
13 | 215 to 216 °C | CN1CCN(c2cccc3c2OC(C(=O)Nc2ccc(N4CCOCC4)cc2)CC3=O)CC1 (racemic) [Example 78, racemic-8-(4-methyl-piperazin-1-yl)-4-oxo-chroman-2-carboxylic acid (4-morpholin-4-yl-phenyl)-amide]
14 | 216 °C (dec.) | CN1CCN(c2cccc3c2OC(C(=O)Nc2ccc(N4CCOCC4)cc2)CC3=O)CC1 (single isomer, unassigned) [Example 79, 8-(4-Methyl-piperazin-1-yl)-4-oxo-chroman-2-carboxylic acid (4-morpholin-4-yl-phenyl)-amide]
15 | 215 °C (dec.) | CN1CCN(c2cccc3c2OC(C(=O)Nc2ccc(N4CCOCC4)cc2)CC3=O)CC1 (single isomer, unassigned) [Example 80, 8-(4-Methyl-piperazin-1-yl)-4-oxo-chroman-2-carboxylic acid (4-morpholin-4-yl-phenyl)-amide]
16 | 206 to 207 °C | CN1CCN(c2cccc3c2OC(C(=O)Nc2ccc(N4CCOCC4)cc2)CC3)CC1 (single isomer, unassigned; (+)) [Example 76, (+)-8-(4Methyl-piperazin-1-yl)-chroman-2-carboxylic acid (4-morpholin-4-yl-phenyl)-amide]
17 | 205.5 to 207 °C | CN1CCN(c2cccc3c2OC(C(=O)Nc2ccc(N4CCOCC4)cc2)CC3)CC1 (single isomer, unassigned; (-)) [Example 77, (−)-8-(4-Methyl-piperazin-1-yl)-chroman-2-carboxylic acid (4-morpholin-4-yl-phenyl)-amide]
18 | 236 to 238 °C | CCNC(=O)N1CCN(c2ccc(NC(=O)c3cc(=O)c4cc(F)cc(N5CCN(C)CC5)c4o3)cc2)CC1 [Example 81, 4-[4-({1-[6-Fluoro-8-(4-methyl-piperazin-1-yl)-4-oxo-4H-chromen-2-yl]-methanoyl}-amino)-phenyl]-piperazine-1-carboxylic acid Ethylamide]
